Experiments:
Caco-2/TC7 cells = assay: Stimulation of Caco-2/TC7 cells by IL-1β, IL-8 secretion (ELISA); type: cell-based, human
From the text: 1.1.1. The Caco-2/TC7 Cell Line • The Caco-2 cell line is derived from a human colon adenocarcinoma and represents a cell culture model of enterocytes lining the epithelium of the small intestinal. […] During the exponential growth phase (from seeding to confluence), the cells remain undifferentiated. At confluence, they can spontaneously (in the absence of differentiation inducers) differentiate and progressively polarize. The differentiation process, which is a growth-related mechanism, is maximal at the end of confluence (stationary phase of the growth curve). • The cells develop a brush border at the apical pole containing microvilli and with characteristic enterocytic enzymes, such as hydrolases. • In accordance with the published literature, the Caco-2/TC7 cells in our experiments were seeded at 10^5 cells/well (equivalent to 10-12×10^3 cells/cm^2) in 6-well plastic culture plates. The cells were maintained in a glucose-rich medium (high glucose in the DMEM GlutaMAX medium 4.5 g/I glucose) supplemented with 20% heat-inactivated foetal calf serum, 1% nonessential amino acids NEAA, and 1% penicillin streptomycin. The cells were grown at 37° C. in a 10% CO2/air atmosphere. The medium was changed every day. Under these conditions, the cells were confluent on day 6. On day 17, the cells were serum-starved, and were used on day 18.
1.2.1. Stimulation of Caco-2/TC7 with Cytokines • The Caco-2/TC7 cells were seeded in 6-well plates at 100,000 cells/well and grown for 18 days. On day 17, the cells were serum-starved, which means that the cell medium was replaced with a foetal calf serum-free medium, and used on day 18. • The stimulation medium was composed of a medium referred to as “starvation medium”, i.e. without foetal calf serum (DMEM GlutaMAX, 1% NEAA, 1% penicillin-streptomycin) with 100 μM of 2-HQ. The cells were incubated for 18 h at 37° C. with 2 ml of stimulation medium containing 0.1% DMSO (negative control) or stimulation medium containing the compounds tested at desired concentrations, with or without proinflammatory cytokines to induce an inflammation. To induce the inflammation, either the IL-1β at 25 ng/ml or the combination of TNF-α and IFN-γ at 50 ng/ml each were used. After 18 h, the supernatants were collected and stored at −80° C. before analysis by ELISA test. The cells were washed with 1 ml of PBS 1×/well, and lysed in 100 μl of PBS 1× containing 1% Triton X-100. The cells were harvested by scraping and stored at −80° C. before the quantification of the protein. The dosing of the LDH was performed immediately before freezing. • All the experiments on the cells were performed in triplicates.
1.2.4. Quantification of the Human Cytokines by ELISA • The levels of the proinflammatory cytokine IL-8 produced by the cells were determined in the cell supernatants and/or cell lysates using the commercially available IL-8 ELISA detection kit (Duoset Human C×CL8/IL-8, ref. DY208) provided by R & D Systems (Minneapolis, Minn., USA) according to the instructions of the manufacturer. • All the cytokine levels were first normalized to the protein content determined in the corresponding cell lysates. Then, to compare the experiments, they could be further normalized using the activated control condition (DMSO+cytokines) as the 100% response.

Raw 264.7 murine cells = assay: Stimulation of Raw 264.7 murine cells by IFN-γ/LPS, IL-6 secretion (ELISA); type: cell-based; details: for activity on IFN-γ/LPS-stimulated Raw 264.7 cells compared with natural 3-oxo-C12-HSL: 1-50 μM range
From the text: 1.1.2. The Raw 264.7 Cell Line • The Raw 264.7 cell line consists of murine cells of macrophage type derived from cell line transformed by the virus of the Abelson leukaemia and providing from BALB/c mice. This cell line is very often used as a model of macrophages in vitro. The Raw 264.7 cells are capable of a phagocytosis and a pinocytosis, can kill the target cells by antibody-dependent cytotoxicity, and secrete a wide range of inflammatory cytokines as well as nitric oxide (NO). In addition, the Raw 264.7 cells are a very convenient cell line: the cells grow rapidly, appreciate the small diameter wells, and should be used before confluence. These conditions make it an advantageous line for the compound screening.
The cells were used between the passages 13 and 26. • The Raw 264.7 cells used are from the ATCC bank. They were grown in DMEM supplemented with 10% heat-inactivated foetal calf serum and 1% L-glutamine to 200 mM, and maintained at 37° C. with a 5% CO2/air atmosphere. The medium was changed every two days.
1.2.2. Stimulation of Raw 264.7 with LIPS and IFN-γ • Raw 264.7 cells were seeded in 12-well plates at 75,000 cells/well, or 24-well plates at 40,000 cells/well, to reach 80-90% confluence after 3 days of culture. […] The cells were harvested by scraping in 100 μL of PBS 1×/well and stored at −80° C. before the quantification of the total protein. […]
1.2.5. Quantification of the Murine Cytokines • The levels of IL-6 murine cytokines produced by cells were determined in cell supernatants or lysates using the commercially available “BD OptEIA Mouse IL-6 ELISA Set” from BD Biosciences (San Jose, Calif., USA, ref. 555240). All the ELISA kits were used according to the instructions of the manufacturer. • The cytokine rates were first normalized to the protein content determined in the corresponding cell lysates. […]

E. coli K12 strain = assay: Bactericidal dosage on the E. coli K12 strain (absorbance at 600 nm); type: cell-based; details: all concentrations, maximum 100 μM shown; 18 h
Protocol: 1.1.4. Bactericidal Dosage • The K12 strain of E. coli was grown on agar on day 0 and a colony was transferred to the LYBHI liquid bacterial culture medium on day 1. On day 2, the colony was diluted 1:100 in LYBHI medium and amplified for 18 hours before transfer to an opaque 96-well plate. In each well, LYBHI, controls or increasing doses of tested molecules and bacteria were distributed. The absorbance at 600 nm was read at start-up (t=0) and after an 18-hour incubation. The raw absorbance values were corrected using the absorbance of solutions without bacteria. All experiments were performed twice, each with 4 replicates.
The E. coli K12 strain was cultured at D0 on agar gel, and then a selected colony was transferred to a liquid bacterial culture LYBHI medium at D1. At day 2, this colony was diluted 1:100 in LYBHI medium, and maintained for 18 hours for expansion before distribution in an opaque 96-well plate. In each well were distributed: LYBHI medium, bacterial culture, and test or control compounds. The absorbance of the wells was read at 600 nm at t0 and t18h. The raw absorbance values were corrected against the absorbance of the wells containing only LYBHI medium without bacteria or compounds.

For `CCCCCCCCCC(=O)CC(=O)N[C@H]1CCCC[C@@H]1O` [I-2, N-[(1S,2S)-2-hydroxycyclohexyl]-3-oxo-dodecanamide], the “activity on IL-1β-stimulated Caco-2/TC7 cells compared with natural 3-oxo-C12 HSL” value (Caco-2/TC7 cells; 1-50 μM range) was “an activity equivalent to that of the natural 3-oxo-C12 HSL”, the “activity on IFN-γ/LPS-stimulated Raw 264.7 cells compared with natural 3-oxo-C12-HSL” value (Raw 264.7 murine cells) was “more active than the reference molecule 3-oxo-C12-HSL” and the “comparative survival of E. coli K12” value (E. coli K12 strain) was “No significant differences”.

In the case of `CCCCCCCCCC(=O)CC(=O)N[C@H]1CCCC[C@H]1O` [I-4, N-[(1S,2R)-2-hydroxycyclohexyl]-3-oxo-dodecanamide], the “activity on IL-1β-stimulated Caco-2/TC7 cells compared with natural 3-oxo-C12 HSL” value (Caco-2/TC7 cells; 1-50 μM range) is reported as “an activity equivalent to that of the natural 3-oxo-C12 HSL”, the “activity on IFN-γ/LPS-stimulated Raw 264.7 cells compared with natural 3-oxo-C12-HSL” value (Raw 264.7 murine cells) is reported as “a higher activity than the natural 3-oxo-C12 HSL” and the “comparative survival of E. coli K12” value (E. coli K12 strain) is reported as “No significant differences”.

`CCCCCCCCCC(=O)CC(=O)Nc1cc(Cl)ccc1O` [I-6, N-(5-chloro-2-hydroxyphenyl)-3-oxododecanamide] was tested, and the “activity on IL-1β-stimulated Caco-2/TC7 cells compared with natural 3-oxo-C12 HSL” value (Caco-2/TC7 cells; 10-100 μM range) was “a significantly higher activity than that of the natural 3-oxo-C12 HSL”, the “activity on IFN-γ/LPS-stimulated Raw 264.7 cells compared with natural 3-oxo-C12 HSL” value (Raw 264.7 murine cells; 10-50 μM range) was “a significantly higher activity than that of the natural 3-oxo-C12 HSL” and the “comparative survival of E. coli K12” value (E. coli K12 strain) was “No significant differences”.
